According to article PMC434488 (BMC Biochemistry, 2004):

Experiments:
[1] = target: S. cerevisiae carbamylphosphate synthetase – aspartate transcarbamylase multifunctional protein (CPSase-ATCase complex) (Saccharomyces cerevisiae, UniProt P07259, E2182K); assay type: biochemical
[2] = target: S. cerevisiae carbamylphosphate synthetase – aspartate transcarbamylase multifunctional protein (CPSase-ATCase complex) (Saccharomyces cerevisiae, UniProt P07259); assay type: biochemical
Chain of S. cerevisiae carbamylphosphate synthetase – aspartate transcarbamylase multifunctional protein (CPSase-ATCase complex) (Saccharomyces cerevisiae, UniProt P07259) (P07259 2-2214, one chain of several): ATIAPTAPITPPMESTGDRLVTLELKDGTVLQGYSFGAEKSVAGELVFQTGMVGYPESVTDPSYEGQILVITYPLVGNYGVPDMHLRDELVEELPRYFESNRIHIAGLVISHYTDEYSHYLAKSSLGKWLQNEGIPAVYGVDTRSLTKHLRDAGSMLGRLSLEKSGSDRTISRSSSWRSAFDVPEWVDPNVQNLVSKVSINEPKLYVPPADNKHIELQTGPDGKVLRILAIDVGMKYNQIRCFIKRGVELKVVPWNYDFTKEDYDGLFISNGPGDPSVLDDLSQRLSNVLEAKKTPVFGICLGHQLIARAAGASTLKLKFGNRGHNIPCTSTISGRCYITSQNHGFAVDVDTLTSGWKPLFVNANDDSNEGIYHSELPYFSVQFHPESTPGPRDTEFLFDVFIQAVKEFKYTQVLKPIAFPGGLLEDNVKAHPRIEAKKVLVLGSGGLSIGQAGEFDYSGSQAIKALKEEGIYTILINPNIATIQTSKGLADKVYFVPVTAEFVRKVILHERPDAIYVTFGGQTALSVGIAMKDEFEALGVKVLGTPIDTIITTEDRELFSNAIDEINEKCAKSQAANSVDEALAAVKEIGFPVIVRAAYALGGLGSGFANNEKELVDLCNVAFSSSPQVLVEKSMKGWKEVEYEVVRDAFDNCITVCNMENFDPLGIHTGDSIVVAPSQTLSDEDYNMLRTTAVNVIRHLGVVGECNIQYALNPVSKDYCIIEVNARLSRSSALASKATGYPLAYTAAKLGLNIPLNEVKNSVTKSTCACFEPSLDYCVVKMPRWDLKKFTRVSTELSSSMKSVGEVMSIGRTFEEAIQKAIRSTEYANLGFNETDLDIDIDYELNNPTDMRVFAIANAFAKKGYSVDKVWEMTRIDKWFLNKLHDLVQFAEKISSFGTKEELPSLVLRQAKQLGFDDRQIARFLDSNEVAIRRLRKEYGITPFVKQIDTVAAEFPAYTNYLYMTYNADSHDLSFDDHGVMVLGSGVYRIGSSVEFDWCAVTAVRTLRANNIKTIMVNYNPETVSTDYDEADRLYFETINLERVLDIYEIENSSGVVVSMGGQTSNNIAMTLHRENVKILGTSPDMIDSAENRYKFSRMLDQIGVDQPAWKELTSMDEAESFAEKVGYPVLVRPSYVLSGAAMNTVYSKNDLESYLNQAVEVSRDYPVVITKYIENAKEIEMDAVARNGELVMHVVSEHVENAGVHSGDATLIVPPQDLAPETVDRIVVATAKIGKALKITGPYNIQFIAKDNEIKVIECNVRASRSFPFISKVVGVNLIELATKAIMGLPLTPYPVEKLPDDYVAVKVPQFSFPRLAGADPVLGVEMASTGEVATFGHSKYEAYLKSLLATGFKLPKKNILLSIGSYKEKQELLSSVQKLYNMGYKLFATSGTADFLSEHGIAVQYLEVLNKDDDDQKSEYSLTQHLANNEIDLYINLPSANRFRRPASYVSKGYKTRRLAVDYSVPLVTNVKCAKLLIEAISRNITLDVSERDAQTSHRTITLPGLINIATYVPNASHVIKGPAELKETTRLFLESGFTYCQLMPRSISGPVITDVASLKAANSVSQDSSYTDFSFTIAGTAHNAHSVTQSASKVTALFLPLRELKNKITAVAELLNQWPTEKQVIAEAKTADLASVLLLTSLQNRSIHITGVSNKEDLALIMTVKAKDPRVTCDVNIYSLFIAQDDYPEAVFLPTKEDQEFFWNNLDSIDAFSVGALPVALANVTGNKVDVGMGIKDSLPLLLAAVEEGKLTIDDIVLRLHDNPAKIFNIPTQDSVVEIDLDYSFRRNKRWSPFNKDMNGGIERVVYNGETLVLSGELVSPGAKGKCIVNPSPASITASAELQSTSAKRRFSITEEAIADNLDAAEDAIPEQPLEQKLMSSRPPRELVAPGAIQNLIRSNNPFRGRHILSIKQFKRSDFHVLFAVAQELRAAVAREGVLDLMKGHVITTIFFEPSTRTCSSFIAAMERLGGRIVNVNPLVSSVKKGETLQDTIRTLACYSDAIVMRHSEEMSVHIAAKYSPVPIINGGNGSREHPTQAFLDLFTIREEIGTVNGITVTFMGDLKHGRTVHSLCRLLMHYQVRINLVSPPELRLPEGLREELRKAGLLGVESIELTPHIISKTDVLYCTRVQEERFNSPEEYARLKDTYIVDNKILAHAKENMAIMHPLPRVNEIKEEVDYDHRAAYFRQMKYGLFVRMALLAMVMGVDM

Chain of S. cerevisiae carbamylphosphate synthetase – aspartate transcarbamylase multifunctional protein (CPSase-ATCase complex) (Saccharomyces cerevisiae, UniProt P07259, E2182K) (P07259 2-2214 E2182K, one chain of several): as the sequence (P07259 2-2214, one chain of several) above, with E2181K counted along it

- Ki [1]: 3000 ± 1000 µM
- IC50 [2]: 800 µM
SMILES: O=c1ccn([C@@H]2O[C@H](COP(=O)(O)OP(=O)(O)OP(=O)(O)O)[C@@H](O)[C@H]2O)c(=O)[nH]1 [UTP]
